Measured values reported in patent US9073821B2, “Hydroxamic acid derivative” (priority 2010, dated 2015).

What follows are compounds tested against Pseudomonas aeruginosa LpxC enzyme (Pseudomonas aeruginosa (strain ATCC 15692 / DSM 22644 / CIP 104116 / JCM 14847 / LMG 12228 / 1C / PRS 101 / PAO1), UniProt P47205) (assay: biochemical). Settings: not given.
Assay type: biochemical

SMILES | IC50
CNC(=O)C(C(=O)NO)N(C)C(=O)c1ccc(C#Cc2ccc(CN3C4CCC3CC4)cc2)cc1 (stereo not shown) [Compound 527, 2-{[(4-{[4-(7-azabicyclo[2.2.1]hept-7-ylmethyl)phenyl]ethynyl}phenyl)carbonyl](methyl)amino}-N-hydroxy-N′-methylpropanediamide] | 0.01 to 0.1 µM

Same assay, conditions: class symbols A/B/C by IC50; Table 3; read-out: Enzyme inhibitory activity (inhibitory activity on Pseudomonas aeruginosa LpxC enzyme)

IC50 | SMILES
< 0.01 µM | CCOC1CN(Cc2ccc(C#Cc3ccc(C(=O)N(C)C(C(=O)NC)C(=O)NO)cc3)c(F)c2F)C1 (stereo not shown) [Compound 580, 2-[{[4-({4-[(3-ethoxyazetidin-1-yl)methyl]-2,3-difluorophenyl}ethynyl)phenyl]carbonyl}(methyl)amino]-N-hydroxy-N′-methylpropanediamide]

Same assay, conditions: inhibitory activity on Pseudomonas aeruginosa LpxC enzyme, class symbols A/B/C; read-out: Enzyme inhibitory activity

SMILES | IC50
CNC(=O)C(C(=O)NO)N(C)C(=O)c1ccc(Oc2ccccc2)cc1 (stereo not shown) [Compound 443, N-hydroxy-N′-methyl-2-{methyl[(4-phenoxyphenyl)carbonyl]amino}propanediamide] | > 0.1 µM
CNC(=O)C(C(=O)NO)N(C)C(=O)C1CCC(c2ccc(Cl)cc2)CC1 (stereo not shown) [Compound 273, 2-[{[4-(4-chlorophenyl)cyclohexyl]carbonyl}(methyl)amino]-N-hydroxy-N′-methylpropanediamide] | > 0.1 µM
CN(C(=O)c1ccc(-c2ccccc2)cc1)C(C(=O)NO)C(=O)NCc1ncccn1 (stereo not shown) [Compound 170, 2-[(biphenyl-4-ylcarbonyl)(methyl)amino]-N-hydroxy-N′-(pyrimidin-2-ylmethyl)propanediamide] | > 0.1 µM
CNC(=O)C(C(=O)NO)N(C)C(=O)c1ccc(OCC#Cc2ccccc2)cc1 (stereo not shown) [Compound 453, N-hydroxy-N′-methyl-2-[methyl({4-[(3-phenylprop-2-yn-1-yl)oxy]phenyl}carbonyl)amino]propanediamide] | 0.01 to 0.1 µM
CNC(=O)C(C(=O)NO)N(C)C(=O)c1ccc(-c2ccc(O)cc2)cc1 (stereo not shown) [Compound 49, N-hydroxy-2-{[(4′-hydroxybiphenyl-4-yl)carbonyl](methyl)amino}-N′-methylpropanediamide] | 0.01 to 0.1 µM
CNC(=O)C(C(=O)NO)N(C)C(=O)c1ccc(C#Cc2ccc(C(F)(F)F)cc2)cc1 (stereo not shown) [Compound 420, N-hydroxy-N′-methyl-2-{methyl[(4-{[4-(trifluoromethyl)phenyl]ethynyl}phenyl)carbonyl]amino}propanediamide] | 0.01 to 0.1 µM
CNC(=O)C(C(=O)NO)N(C)C(=O)c1ccc(-c2ccc(C3(C)OCCO3)cc2)cc1 (stereo not shown) [Compound 254, N-hydroxy-N′-methyl-2-(methyl {[4′-(2-methyl-1,3-dioxolan-2-yl)biphenyl-4-yl]carbonyl}amino)propanediamide] | 0.01 to 0.1 µM
CCCCCCCCOc1ccc(C(=O)N(C)C(C(=O)NC)C(=O)NO)cc1 (stereo not shown) [Compound 25, N-hydroxy-N′-methyl-2-{methyl[4-(octyloxy)benzoyl]amino}propanediamide] | 0.01 to 0.1 µM
CCNC(=O)C(NC(=O)c1ccc(-c2ccc(OCCO)cc2)cc1)C(=O)NO (stereo not shown) [Compound 139, N-ethyl-N′-hydroxy-2-({[4′-(2-hydroxyethoxy)biphenyl-4-yl]carbonyl}amino)propanediamide] | 0.01 to 0.1 µM
CNC(=O)C(NC(=O)c1ccc(-c2ccc(OCCOCCOCCO)cc2)cc1)C(=O)NO (stereo not shown) [Compound 13, N-hydroxy-2-{[(4′-{2-[2-(2-hydroxyethoxy)ethoxy]ethoxy}biphenyl-4-yl)carbonyl]amino}-N′-methylpropanediamide] | 0.01 to 0.1 µM

The next lines start with the values.

IC50 | SMILES
0.01 to 0.1 µM | CNC(=O)C(C(=O)NO)N(C)C(=O)c1ccc(C#Cc2cccc(CN3CCOCC3)c2)cc1 (stereo not shown) [Compound 375, N-hydroxy-N′-methyl-2-{methyl[(4-{[3-(morpholin-4-ylmethyl)phenyl]ethynyl}phenyl)carbonyl]amino}propanediamide]
< 0.01 µM | O=C(NC(C(=O)NO)C(=O)NCc1ccccc1)c1ccc(-c2ccc(OCCO)cc2)cc1 (stereo not shown) [Compound 120, N-benzyl-N′-hydroxy-2-({[4′-(2-hydroxyethoxy)biphenyl-4-yl]carbonyl}amino)propanediamide]
< 0.01 µM | O=C1COc2ccc(CNC(=O)C(NC(=O)c3ccc(-c4ccc(OCCO)cc4)cc3)C(=O)NO)nc2N1 (stereo not shown) [Compound 152, N-hydroxy-2-({[4′-(2-hydroxyethoxy)biphenyl-4-yl]carbonyl}amino)-N′-[(3-oxo-3,4-dihydro-2H-pyrido[3,2-b][1,4]oxazin-6-yl)methyl]propanediamide]
< 0.01 µM | CNC(=O)C(C(=O)NO)N(C)C(=O)c1ccc(-c2ccc3c(c2)OC(F)(F)O3)cc1 (stereo not shown) [Compound 258, 2-{[4-(2,2-difluoro-1,3-benzodioxol-5-yl)benzoyl](methyl)amino}-N-hydroxy-N′-methylpropanediamide]
< 0.01 µM | O=C(NC(C(=O)NO)C(=O)NCC(=O)N1CCCC1)c1ccc(-c2ccc(OCCO)cc2)cc1 (stereo not shown) [Compound 141, N-hydroxy-2-({[4′-(2-hydroxyethoxy)biphenyl-4-yl]carbonyl}amino)-N′-[2-oxo-2-(pyrrolidin-1-yl)ethyl]propanediamide]
0.01 to 0.1 µM | CNC(=O)C(C(=O)NO)N(C)C(=O)c1ccc(-c2ccc(N)cc2)cc1 (stereo not shown) [Compound 284, 2-{[(4′-aminobiphenyl-4-yl)carbonyl](methyl)amino}-N-hydroxy-N′-methylpropanediamide]
0.01 to 0.1 µM | CN(C(=O)c1ccc(-c2ccccc2)cc1)C(C(=O)NO)C(=O)NCc1cccnc1 (stereo not shown) [Compound 177, 2-[(biphenyl-4-ylcarbonyl)(methyl)amino]-N-hydroxy-N′-(pyridin-3-ylmethyl)propanediamide]
< 0.01 µM | CNC(=O)C(C(=O)NO)N(C)C(=O)c1ccc(-c2ccc(OCC(F)CN3CCOCC3)cc2)cc1 (stereo not shown) [Compound 283, 2-[({4′-[2-fluoro-3-(morpholin-4-yl)propoxy]biphenyl-4-yl}carbonyl)(methyl)amino]-N-hydroxy-N′-methylpropanediamide]
< 0.01 µM | CNC(=O)C(C(=O)NO)N(C)C(=O)c1ccc(-c2ccc(OCCN(C)c3ccccc3)cc2)cc1 (stereo not shown) [Compound 89, N-hydroxy-N′-methyl-2-{methyl[(4′-{2-[methyl(phenyl)amino]ethoxy}biphenyl-4-yl)carbonyl]amino}propanediamide]
0.01 to 0.1 µM | CNC(=O)C(C)(NC(=O)c1ccc(C#Cc2ccc(CN3CCCOCC3)cc2)cc1)C(=O)NO (stereo not shown) [Compound 380, N-hydroxy-N′,2-dimethyl-2-{[(4-{[4-(1,4-oxazepan-4-ylmethyl)phenyl]ethynyl}phenyl)carbonyl]amino}propanediamide]
< 0.01 µM | CCN(C(=O)c1ccc(C#Cc2ccc(CN3CCCOCC3)cc2)cc1)C(C(=O)NC)C(=O)NO (stereo not shown) [Compound 336, 2-{ethyl[(4-{[4-(1,4-oxazepan-4-ylmethyl)phenyl]ethynyl}phenyl)carbonyl]amino}-N-hydroxy-N′-methylpropanediamide]
< 0.01 µM | CNC(=O)C(C(=O)NO)N(C)C(=O)c1ccc(-c2ccc(OCCCN3CCOCC3)c(F)c2)cc1 (stereo not shown) [Compound 208, 2-[({3′-fluoro-4′-[3-(morpholin-4-yl)propoxy]biphenyl-4-yl}carbonyl)(methyl)amino]-N-hydroxy-N′-methylpropanediamide]
< 0.01 µM | CNC(=O)C(C(=O)NO)N(C)C(=O)c1ccc(C#Cc2ccc(CN3CCCCC3)cc2)cc1 (stereo not shown) [Compound 234, N-hydroxy-N′-methyl-2-[methyl(4-{[4-(piperidin-1-ylmethyl)phenyl]ethynyl}benzoyl)amino]propanediamide]
